# Entries after “also recorded” stand apart in the source; their conditions may differ.
# Legend:
# [1] = test system: gluconeogenic enzymes in liver; settings: Golf et al 1984; cited from earlier work
# glucocorticoid receptors = target: T1, glucocorticoid receptors (Rattus norvegicus, UniProt P06536); settings: Carlstedt-Duke et al 1977; cited from earlier work
# T1 sequence (P06536 1-795): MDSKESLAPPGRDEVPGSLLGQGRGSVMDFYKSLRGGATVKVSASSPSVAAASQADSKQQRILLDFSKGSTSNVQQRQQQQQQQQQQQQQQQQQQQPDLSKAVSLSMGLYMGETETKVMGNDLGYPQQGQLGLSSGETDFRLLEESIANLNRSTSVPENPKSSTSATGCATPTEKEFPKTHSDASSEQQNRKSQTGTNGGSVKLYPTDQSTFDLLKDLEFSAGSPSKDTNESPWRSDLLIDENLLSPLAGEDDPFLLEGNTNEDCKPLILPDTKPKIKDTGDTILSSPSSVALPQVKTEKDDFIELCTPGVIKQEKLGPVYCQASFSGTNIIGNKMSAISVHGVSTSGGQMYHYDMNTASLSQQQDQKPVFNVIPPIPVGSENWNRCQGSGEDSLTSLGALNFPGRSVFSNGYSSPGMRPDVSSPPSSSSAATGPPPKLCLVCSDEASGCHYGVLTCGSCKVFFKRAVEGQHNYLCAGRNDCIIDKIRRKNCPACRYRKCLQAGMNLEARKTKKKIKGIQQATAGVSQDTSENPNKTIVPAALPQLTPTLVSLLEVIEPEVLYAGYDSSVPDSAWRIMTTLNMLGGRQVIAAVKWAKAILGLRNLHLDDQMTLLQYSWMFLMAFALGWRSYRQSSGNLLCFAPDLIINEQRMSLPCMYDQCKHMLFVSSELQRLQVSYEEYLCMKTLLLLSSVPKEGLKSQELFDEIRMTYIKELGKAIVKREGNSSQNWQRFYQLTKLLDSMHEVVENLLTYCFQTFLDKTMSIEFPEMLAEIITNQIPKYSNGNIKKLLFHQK
# [2] = test system: neuronal long-term potentiation; settings: Dubrovsky et al 1987; cited from earlier work
# [3] = test system: glucocorticoid receptors (GR) in hepatocytes; test: Binding to glucocorticoid receptor in hepatocytes (3H-dexamethasone displacement); settings: 24° C., 1 h, compared with corticosterone (B)
# Procedure: Hepatocytes were incubated at 24° C. for 1 h in the presence of ^3H-dexamethasone and increasing concentrations of dexamethasone in the concentration range 0.632 nM to 200 μM. Cells were harvested and the radioactivity bound was determined by β-scintillation counting. *=p<0.001 versus B. The results are shown in FIG. 1.
# [4] = target: T2, glucocorticoid receptor (GR) (Homo sapiens, UniProt P04150); test: GR activation reporter: Hela cells transfected with GR and MMTV-luciferase; format: cell-based; settings: for Induction of luciferase (GR activation), Example 5 / luciferase induction in response to activation of GR / luciferase induction in cells without GR: 1 micromol/l; for luciferase induction in response to activation of GR: Hela cells transfected with GR and MMTV-luciferase; for luciferase induction in cells without GR: Hela cells transfected with luciferase but without GR
# T2 construct: expressed in transfected cells; host or cells: HeLa cells
# T2 sequence (P04150 1-777): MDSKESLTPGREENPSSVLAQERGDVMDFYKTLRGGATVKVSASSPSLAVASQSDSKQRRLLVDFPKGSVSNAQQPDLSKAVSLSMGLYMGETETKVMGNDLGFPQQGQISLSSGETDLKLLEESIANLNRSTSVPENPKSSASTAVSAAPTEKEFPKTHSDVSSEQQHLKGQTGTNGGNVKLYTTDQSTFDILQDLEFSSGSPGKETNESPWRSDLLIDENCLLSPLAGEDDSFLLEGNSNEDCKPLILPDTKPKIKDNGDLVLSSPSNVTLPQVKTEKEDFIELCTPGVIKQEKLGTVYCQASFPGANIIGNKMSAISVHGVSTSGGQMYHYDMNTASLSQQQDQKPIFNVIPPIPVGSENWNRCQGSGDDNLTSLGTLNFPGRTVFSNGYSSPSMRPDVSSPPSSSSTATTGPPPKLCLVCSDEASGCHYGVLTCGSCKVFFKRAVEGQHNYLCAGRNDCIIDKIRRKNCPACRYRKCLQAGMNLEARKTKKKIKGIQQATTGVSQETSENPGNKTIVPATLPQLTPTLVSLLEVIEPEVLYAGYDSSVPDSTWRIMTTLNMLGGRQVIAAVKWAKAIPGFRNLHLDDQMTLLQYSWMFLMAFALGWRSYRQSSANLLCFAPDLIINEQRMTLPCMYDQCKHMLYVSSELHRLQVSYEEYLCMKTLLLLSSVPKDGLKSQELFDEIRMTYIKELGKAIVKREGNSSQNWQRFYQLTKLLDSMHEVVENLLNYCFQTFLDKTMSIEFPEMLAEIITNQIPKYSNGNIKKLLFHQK
# Procedure: Comparative potency Fold induction of luciferase activity as a consequence of GR activation in Hela cells transfected with GR and luciferase under the control of a GRE and MMTV promoter (n=3). All steroids at 1 μM. Dex=dexamethasone; B=corticosterone; αDHB=5α-dihydrocorticosterone; αTHB=5α-tetrahydrocorticosterone; βDHB=5β-dihydrocorticosterone; βTHB=5β-tetrahydrocorticosterone. *indicates p<0.05 and ***p<0.001 in comparison with corticosterone. 5α-reduced metabolites of corticosterone activate glucocorticoid receptors with similar potency as corticosterone (B). […] 5β-reduced metabolites have no effect.
# Dose response. Fold induction of luciferase activity as a consequence of GR activation in Hela cells transfected with GR and luciferase under the control of a GRE and MMTV promoter (n=3).
# Corticosterone (B) and 5α-tetrahydrocorticosterone (5αTHB) or vehicle (LTR) were added to the medium (with final steroid concentrations of 1 micromol/l) of Hela cells transfected with GR and a plasmid expressing luciferase under the control of an MMTV glucocorticoid responsive promoter (grey bars) and in transfected cells with luciferase but without GR (open bars).
# HeLa cells were transfected with glucocorticoid receptor (GR) and MMTV-luciferase (LTR) as a glucocorticoid sensitive reporter. Induction of luciferase was measured in response to addition of 5α-tetrahydrocorticosterone (5α-THB) with and without corticosterone (B). Data (mean±SEM, n=6) show responses to individual steroids, then the additive responses predicted (Sum) and observed (Actual).
# HeLa cells were transfected with glucocorticoid receptor (GR) and MMTV-luciferase (LTR) as a glucocorticoid sensitive reporter. Induction of luciferase was measured in response to addition of 1 micromol/l concentrations of corticosterone (B), cortisol (F), 5alpha-dihydrocortisol (DHF5a) and 5alpha-tetrahydrocortisol (THF5a).
# mouse aortic ring = test: Angiogenesis bioassay, aortic ring embedded in matrigel; format: cell-based; settings: 7 days; for number of new vessels forming (angiogenesis): B 600 nmol/l, 5alpha-THB 1000 nmol/l; for angiogenesis effect in presence of RU486: plus GR antagonist RU486
# Procedure: In this bioassay, the number of new vessels forming is measured over 7 days in a mouse aortic ring embedded in matrigel.
# [5] = test system: tyrosine amino transferase (TAT) mRNA in H4iiE cells; test: Induction of tyrosine amino transferase (TAT) mRNA in H4iiE cells (Northern blot); format: cell-based; settings: 1 micromol/l; for Induction of TAT mRNA: Northern blot corrected for U1; for Induction of TAT mRNA in presence of RU486: plus GR antagonist RU486
# Procedure: Induction of the glucocorticoid-responsive enzyme tyrosine amino transferase (TAT) mRNA was measured by Northern blot in H4iiE cells incubated in the presence of corticosterone (B, 1 micromol/l) or 5α-tetrahydrocorticosterone (5α-THB, 1 micromol/l) or vehicle.
# ACTH levels = test: ACTH suppression in adrenalectomised rats; format: in vivo, Male lean Zucker rats; settings: 5 mg/kg intraperitoneal, 2 hours after injection, immunoassay
# Procedure: Male lean Zucker rats aged ˜9 weeks were adrenalectomised. 3 weeks later, samples were obtained by tail tipping before and for 3 hours after intraperitoneal injection of either vehicle, corticosterone (B, 5 mg/kg body weight) or 5alpha-tetrahydrocorticosterone (THB5a, 5 mg/kg body weight). […] This is consistent with activation of glucocorticoid receptors at sites responsible for feedback suppression of the hypothalamic-pituitary-adrenal axis (principally pituitary, hypothalamus and hippocampus).
# [6] = HeLa cells, GR and MMTV-luciferase
# [7] = Hela cells transfected with GR and GRE/MMTV-luciferase, n=3
Compound,"Induction of luciferase (GR activation), Example 5 [4, 6]",luciferase induction in response to activation of GR [4],binding affinity for glucocorticoid receptors (GR) [3],number of new vessels forming (angiogenesis) (mouse aortic ring),angiogenesis effect in presence of RU486 (mouse aortic ring),Induction of TAT mRNA [5],Induction of TAT mRNA in presence of RU486 [5],ACTH levels compared with vehicle (ACTH levels),"Fold induction of luciferase activity as a consequence of GR activation (dose response) [4, 7]",luciferase induction in cells without GR [4],other results
C[C@]12CCC(=O)C[C@@H]1CC[C@@H]1[C@@H]2[C@@H](O)C[C@]2(C)[C@@H](C(=O)CO)CC[C@@H]12 [5α-dihydrocorticosterone],,,lower binding affinities,,,,,,,,"activity of gluconeogenic enzymes in liver [1]: lowering activity of gluconeogenic enzymes in liver; binding to glucocorticoid receptors, judged by displacement of bound dexamethasone (glucocorticoid receptors): does not bind to glucocorticoid receptors; effect on neuronal long-term potentiation [2]: inhibition of neuronal long-term potentiation"
"C[C@]12CCC(=O)C=C1CC[C@@H]1[C@@H]2[C@@H](O)C[C@@]2(C)[C@H]1CC[C@]2(O)C(=O)CO [cortisol, reference compound]",induced significant GR activation,,,,,,,,,,
C[C@]12CC[C@@H](O)C[C@@H]1CC[C@@H]1[C@@H]2[C@@H](O)C[C@@]2(C)[C@H]1CC[C@]2(O)C(=O)CO [5alpha-tetrahydrocortisol],induced significant GR activation,,,,,,,,,,

# Now from value to molecule, other results behind:
"Induction of luciferase (GR activation), Example 5 [4, 6]",luciferase induction in response to activation of GR [4],Compound,binding affinity for glucocorticoid receptors (GR) [3],number of new vessels forming (angiogenesis) (mouse aortic ring),angiogenesis effect in presence of RU486 (mouse aortic ring),Induction of TAT mRNA [5],Induction of TAT mRNA in presence of RU486 [5],ACTH levels compared with vehicle (ACTH levels),"Fold induction of luciferase activity as a consequence of GR activation (dose response) [4, 7]",luciferase induction in cells without GR [4],other results
induced significant GR activation,,C[C@]12CCC(=O)C[C@@H]1CC[C@@H]1[C@@H]2[C@@H](O)C[C@@]2(C)[C@H]1CC[C@]2(O)C(=O)CO [5alpha-dihydrocortisol],,,,,,,,,
induced significant GR activation,activated GR,"C[C@]12C[C@H](O)[C@H]3[C@@H](CCC4=CC(=O)CC[C@@]43C)[C@@H]1CC[C@@H]2C(=O)CO [corticosterone, reference compound]",,inhibits angiogenesis,blocked,induced TAT mRNA transcription,blocked,significantly suppressed ACTH levels,activate a glucocorticoid receptor-dependent response,abolished in the absence of transfected receptor,
,activated GR,C[C@]12CC[C@@H](O)C[C@@H]1CC[C@@H]1[C@@H]2[C@@H](O)C[C@]2(C)[C@@H](C(=O)CO)CC[C@@H]12 [5α-tetrahydrocorticosterone],equivalent binding affinity,prevents angiogenesis,also blocked by RU486,induced TAT mRNA transcription,blocked,significantly suppressed ACTH levels,activate a glucocorticoid receptor-dependent response; also recorded: lesser effect than corticosterone,abolished in the absence of transfected receptor,"agonist type at GR (observed versus predicted additive luciferase response) ([4]; HeLa cells, GR and MMTV-luciferase, with and without corticosterone, n=6): full rather than partial agonist of GR; Fold induction of luciferase activity as a consequence of GR activation (comparative potency) ([4]; Hela cells transfected with GR and GRE/MMTV-luciferase, all steroids at 1 μM, n=3): more potent than 5α-dihydrocorticosterone"
